Measurements: patent publication US20170304396A1, “AQUEOUS SOLUTION FORMULATIONS OF VANCOMYCIN” (priority 2015, published 2017)
Values after ≈ are worked out from the molar mass of the structure shown. Counter-ions that a name gives are not always drawn.

Key:
[1] = assay type: physicochemical
Description: The aim of this study was to compare effects of various ingredients on vancomycin stability in a solution in order to identify a stabilizer that can slow the degradation of vancomycin in solution. Each solution sample (coded with an F-#) was prepared by dissolving vancomycin HCl to 1% concentration, along with stabilizer added at the concentrations listed in the Table below. Each solution was adjusted to about pH 4.7 and stored at 2-8° C. and 50° C. for 2 days. The stability of vancomycin was indicated by vancomycin recovery (% over the initial concentration) after storage at a selected temperature. The concentration of vancomycin or vancomycin assay was measured using HPLC method (USP Vancomycin Assay method). The relative stability of vancomycin in each solution was expressed in vancomycin concentration or assay recovery (% over the initial concentration).
The aim of this study was to compare various amino acids, including tryptophan, on their effects on vancomycin stability in an aqueous solution. The solution samples were prepared and tested similarly to Example 2.
The solution samples were prepared and tested in a similar way as in Example 2. The test sample compositions and test results are shown in the Table below and the effects of tryptophan concentration on vancomycin stability are depicted graphically in FIG. 4.

E. faecalis ATCC 29212 = assay: Minimum Inhibitory Concentration (CLSI); assay type: cell-based; details: Example 11
Description: (§1) Standards for this method are outlined by the Clinical and Laboratory Standards Institute (CLSI). The table below describes the vancomycin solution composition used to test antibiotic potency:
(§2) Standards for this method are outlined by the Clinical and Laboratory Standards Institute (CLSI).

S. aureus ATCC 25923 = assay: Minimum Inhibitory Concentration (CLSI); assay type: cell-based; details: Example 11
Description: as §1, §2

Solubility in water = assay type: physicochemical; details: for solubility: water
physchem = assay: physchem
Description: As used herein, “molecular complex” means a special interaction between two molecules that are not covalently bonded. […] One of the methods to detect molecular complex formation is the phase solubility diagram which measures changes in solubility of one molecule (“substrate”) as a function of the other molecule (“complexing agent”) (T. Higuchi and J. L. Lach, J. Am. Pharm. Assoc., Sci. Ed. 43, 349, 525, 527, 1954).
In addition, this study intended to determine the stoichiometric ratio of such molecular complex formed. To obtain a phase solubility diagram of tryptophan, pre-calculated amounts of tryptophan, vancomycin and water were added into a plastic tube to form a suspension in which vancomycin was completed dissolved but tryptophan was not completed dissolved, the suspension was adjusted to pH 6.2, mixed at room temperature (RT) overnight to reach dissolution/re-crystallization equilibrium, and then filtered through a 0.2-micorn filter membrane. The filtrate was diluted and analyzed by HPLC (using the USP HPLC vancomycin assay method) to determine the concentrations of tryptophan and vancomycin. The solubility of tryptophan measured and the concentration of vancomycin added measured in each suspension sample are provided in the Table below: […]

[2] = Merck Index (12th edition); cited from earlier work

For `CC(=O)N[C@@H](Cc1c[nH]c2ccccc12)C(=O)O` [N-acetyl-tryptophan], the “effect of additive on vancomycin stability in solution” value [1] was “capable of slowing down the degradation of vancomycin in solution”.
With `N[C@@H](Cc1c[nH]c2ccccc12)C(=O)O` [tryptophan] the “effect of additive on vancomycin stability in solution” value [1] was “capable of slowing down the degradation of vancomycin in solution”, the “effect of amino acid on vancomycin stability in solution” value [1] was “capable of slowing down the degradation of vancomycin” and the “effect of tryptophan concentration on vancomycin stability in solution” value [1] was “improves vancomycin stability in a concentration-dependent fashion”. The “effect of addition of tryptophan on the MIC of vancomycin” value (E. faecalis ATCC 29212) was “does not affect the MIC of vancomycin”, the “effect of addition of tryptophan on the MIC of vancomycin” value (S. aureus ATCC 25923) was “does not affect the MIC of vancomycin” and the solubility (Solubility in water; without vancomycin, read-out: tryptophan solubility in water) was roughly 14 mg/mL (≈ 68.6 mM). For the same compound, the tryptophan solubility (physchem; pH 6.2) was 2.2%, the “tryptophan solubility (estimated)” value (physchem; pH 6.2) was roughly 2.5% and the solubility (physchem; pH 6.2, aqueous buffer, thermodynamic from solid) was roughly 70 mM (≈ 14.3 mg/mL).
For `CN[C@H](CC(C)C)C(=O)N[C@H]1C(=O)N[C@@H](CC(N)=O)C(=O)N[C@H]2C(=O)N[C@H]3C(=O)N[C@H](C(=O)N[C@H](C(=O)O)c4cc(O)cc(O)c4-c4cc3ccc4O)[C@H](O)c3ccc(c(Cl)c3)Oc3cc2cc(c3O[C@@H]2O[C@H](CO)[C@@H](O)[C@H](O)[C@H]2O[C@H]2C[C@](C)(N)[C@H](O)[C@H](C)O2)Oc2ccc(cc2Cl)[C@H]1O` [vancomycin hydrochloride], the “solubility of vancomycin hydrochloride in water” value [2] is listed as greater than 10 % w/v.
For `CN[C@H](CC(C)C)C(=O)N[C@H]1C(=O)N[C@@H](CC(N)=O)C(=O)N[C@H]2C(=O)N[C@H]3C(=O)N[C@H](C(=O)N[C@H](C(=O)O)c4cc(O)cc(O)c4-c4cc3ccc4O)[C@H](O)c3ccc(c(Cl)c3)Oc3cc2cc(c3O[C@@H]2O[C@H](CO)[C@@H](O)[C@H](O)[C@H]2O[C@H]2C[C@](C)(N)[C@H](O)[C@H](C)O2)Oc2ccc(cc2Cl)[C@H]1O` [vancomycin], the “vancomycin solubility limit in water” value (Solubility in water) was “about 12 % w/v” and the solubility (Solubility in water; read-out: vancomycin solubility limit in water) was roughly 120 mg/mL (≈ 82.8 mM).
